From publication PMC5549732 (PLoS ONE, 2017)
Values joined by “and” are separate entries in the source; they are usually repeats but may differ in a detail not shown here. Equal values may be shown once.

Columns and labels:
HCT116-luc2 tumors [1] = experiment: TfV-750 fluorescence imaging (FLI) of tumor transferrin receptor expression; type: in vivo, nu/nu mice
Experimental: In addition, the imager is equipped with suitable excitation and emission filter sets for FLI of BRS-680 and TfV-750. Tumor metabolic activities were visualized by IV injection of a mixture of these two NIR imaging agents (2 nmol/mouse each in a total volume of 100 μl of PBS). The agents were injected 16 h prior to FLI imaging in order to allow optimal probe uptake and clearance of unbound probe. For the longitudinal FLI imaging studies, separate cohorts were used for FLI acquisitions on days 1 (n = 10, imaging agents injected on day 0), 2 (n = 10, injected on day 1), and 3 (n = 5, injected on day 2) due to the extended time required for probe washout. […]
(§1) BLI and FLI images were analyzed using the Living Image software (version 4.4 for Windows, PerkinElmer Inc.). Tumor BLI and FLI signals were quantified using the region of interest (ROI) tools, and the total optical signals were calculated as total flux (photon counts/sec) and total radiant efficiency [(p/s)/(μW/cm^2)], respectively. […] All PET images were represented as standard uptake value (SUV) using the VivoQuant 3.0 software and tumor-specific ^18F-FDG uptake levels were also calculated using SUVtotal. […] For each treatment group, we calculated relative tracer uptake in tumors using the day 0 uptake level as 100%. […]

HCT116-luc2 tumors [2] = experiment: BLI of firefly luciferase activity (tumor viability) in HCT116-luc2 xenografts; type: in vivo, nu/nu mice
Experimental: Optical BLI and FLI were performed using the IVIS® SpectrumCT, which is capable of imaging multiple mice simultaneously (up to 5 mice). To generate BLI signals, the tumor-bearing mice received IP injections of 75 mg/kg of D-luciferin (potassium salt, PerkinElmer Inc.) and were placed into the imager for sequential image acquisitions (settings: FOV = D, Binning = 16, F/Stop = 1, Open filter, 2 min delay between each acquisition) under 1–2% of isoflurane anesthesia. Maximal bioluminescence output for each tumor was determined by sequentially acquiring a BLI image every two minutes for up to 16 min. Typical peak imaging time for the HCT116-luc2 subcutaneous model was approximately 10 min, and BLI images are represented in units of radiance (p/sec/cm^2/sr).
(§2) BLI and FLI images were analyzed using the Living Image software (version 4.4 for Windows, PerkinElmer Inc.). Tumor BLI and FLI signals were quantified using the region of interest (ROI) tools, and the total optical signals were calculated as total flux (photon counts/sec) and total radiant efficiency [(p/s)/(μW/cm^2)], respectively. For greater accuracy, all FLI data was corrected for background levels based on specific measurements as described in the figure legends. All PET images were represented as standard uptake value (SUV) using the VivoQuant 3.0 software and tumor-specific ^18F-FDG uptake levels were also calculated using SUVtotal. […] For each treatment group, we calculated relative tracer uptake in tumors using the day 0 uptake level as 100%. For statistical analysis, we used the GraphPad Prism software (version 6.0 for Windows, La Jolla, CA). Data are presented as the mean ± standard error of the mean (s.e.m.). Statistical analysis was conducted using ANOVA or Student’s t-test, as indicated. P < 0.05 was the cutoff for being considered statistically significant.

HCT116-luc2 tumors [3] = experiment: H&E histology of tumor tissue sections; type: in vivo, nu/nu mice; conditions: sorafenib 120 mg/kg, days 0-4 and 7-9; day 9
Experimental: Tumor tissues were fixed in 10% neutral buffered formalin, followed by routine process and embedment in paraffin. Tissue sections (5 μm) were prepared on electrostatically charged glass slides and then baked at 60°C overnight. After washing the slides with three washes in xylene, the slides were rehydrated through a series of graded ethanol (100%, 90% and 70%) to water. The prepared slides were then stained with hematoxylin and eosin.
Fig 1 Sorafenib, a tyrosine kinase inhibitor, effectively suppresses HCT116-luc2 tumor growth. Nude mice bearing subcutaneous tumors on the flanks were treated with vehicle or with 120 mg/kg of sorafenib on days 0–4 and days 7–9 via oral gavage. A: Longitudinal tumor volume measurements of subcutaneous HCT116-luc2 tumors (***p < 0.0001, n = 5 per group, two-way ANOVA, mean and s.e.m., representative of three studies) B: H&E staining of tumor tissue sections harvested from the vehicle and sorafenib-treated (120 mg/kg) tumors on day 9. […] Bar: 50 μm.

HCT116-luc2 tumors [4] = experiment: BRS-680 fluorescence imaging (FLI) of tumor bombesin receptor expression; type: in vivo, nu/nu mice; conditions: for inhibition of BRS-680 tumor FLI signal: sorafenib 40 mg/kg daily oral gavage
Experimental: In addition, the imager is equipped with suitable excitation and emission filter sets for FLI of BRS-680 and TfV-750. Tumor metabolic activities were visualized by IV injection of a mixture of these two NIR imaging agents (2 nmol/mouse each in a total volume of 100 μl of PBS). The agents were injected 16 h prior to FLI imaging in order to allow optimal probe uptake and clearance of unbound probe. For the longitudinal FLI imaging studies, separate cohorts were used for FLI acquisitions on days 1 (n = 10, imaging agents injected on day 0), 2 (n = 10, injected on day 1), and 3 (n = 5, injected on day 2) due to the extended time required for probe washout. […] Fluorescent signal is represented as radiant efficiency [(p/sec/cm^2/sr)/(μW/cm^2)] or normalized fluorescent signal where appropriate.
as §2, with “SUVtotal. Several similar imaging experiments were performed using this particular HCT116-luc2 tumor model to visualize treatment responses to sorafenib.” for “SUVtotal.”
Besides interfering with glycolytic activity, we believe inhibition of the Ras/Raf/MEK/ERK pathways with sorafenib has a broader, global impact on tumor energy metabolism. […] We wonder if these FLI probes can detect early, yet subtle metabolic disturbances induced by sorafenib treatment prior to the later regression of treated tumors, like we saw with ^18F-FDG PET imaging. […] Separate cohorts were used for FLI acquisitions on days 1, 2, and 3 due to the extended time required for probe washout. Of note, the day 1 cohort was re-injected with probe for imaging on day 10 to assess ultimate treatment efficacy. […]

[5] = system: HCT116-luc2 subcutaneous xenografts; experiment: Caliper tumor volume measurement of subcutaneous HCT116-luc2 xenografts
Experimental: Specific pathogen-free nu/nu (Crl:NU-Fox1^nu, 6–8 weeks old) and CD-1 (Crl:CD1[ICR]) mice were purchased from Charles River Laboratories (Wilmington, MA). Mice were housed in a controlled environment (72°F; 12:12-h light-dark cycle) under specific-pathogen free conditions with water and food provided ad libitum. To induce tumor growth, 2.5 x10^6 of HCT116-luc2 cells were subcutaneously injected on the right flank of a nude mouse. Two weeks after cancer cell inoculation, when the tumor volume reached an appropriate size (measured by caliper and calculated by the formula 0.5 x length x width^2), animals were randomized into vehicle or different sorafenib treatment groups as indicated. Sorafenib was prepared in water containing 6.2% of ethanol and 6.2% of Kolliphor EL (Sigma-Aldrich, St. Louis, MO). The treatment was given daily 5 times a week by oral gavage at 15 μl per gram of body weight.
We initiated the treatment when the average HCT116-luc2 tumor size for each group reached ~180 mm^3 in volume (day 0). The drug was given daily via oral gavage at a dosage of 120 mg/kg from days 0 to 4 and from days 7 to 9.
In this set of studies (Fig 2), treatments were initiated when the average group HCT116-luc2 tumor size reached ~100 mm^3 in volume. […] The drug was given daily, from days 0 to 4 and from days 7 to 11. In addition to the conventional tumor volume measurements by caliper, we performed BLI of firefly luciferase activity to access tumor viability on the days indicated.

HCT116-luc2 tumors [6] = experiment: 18F-FDG microPET imaging of tumor glucose uptake; type: in vivo, nu/nu mice; conditions: sorafenib 40 mg/kg daily oral gavage; days 2 and 3 post-treatment; n = 5 per group
Experimental: We also performed microPET imaging using ^18F-FDG as a tracer for detecting changes in tumor glucose uptake with or without treatment. Images were acquired using the G8 PET/CT system (PerkinElmer Inc.). For each mouse, 100 μCi of ^18F-FDG (PETNET Solutions Inc., Malvern PA) was injected intravenously (IV), and all mice were kept warm and maintained under 1.5% isoflurane gas anesthesia for 1 hour for tracer uptake. Subsequently, the mice were imaged with a standard 10 min static F-18 imaging protocol. The G8 PET/CT system automatically performed image reconstruction after acquisition and provided 3D tomography imaging in the DICOM format. We were able to image the same cohorts (n = 5) throughout the course of study since ^18F has a relative short decay half-life (~110 min). […]
as §1

HT-29 tumors = experiment: Biodistribution and in vivo imaging kinetics of the probes in HT-29 tumor-bearing mice; set-up: species or system nu/nu mice
Experimental: (§3) Selectivity was assessed in vitro using HT-29 human colorectal cells; fluorescence signal on BRS-680-labeled cells was ~7X greater than either the scrambled peptide version of the probe or when 100X unlabeled bombesin peptide was used to block labeling (S2 Fig) as assessed by both flow cytometry and fluorescence microscopy. […] Tumor tissue localization co-localized well with ex vivo anti-bombesin receptor staining (S5 Fig).
Selectivity was assessed in vitro by flow cytometry and fluorescence microscopy using HT-29 human colorectal cells; fluorescence signal on TfV-750-labeled cells was ~15X greater than when 100 μM unlabeled recombinant transferrin was used to block labeling (S7 Fig). […] Animals were bled at indicated times, and plasma fluorescence was determined using a microplate assay. […] The probe has good tissue penetration into tumors, as its binding pattern in tumor sections (using a 645 nm FLI surrogate to improve microscopy imaging) correlates well with the transferrin receptor expression on cancer cells and is not associated with the tumor vasculature (S10 Fig).
Blood samples were obtained via terminal cardiac puncture and plasma fluorescence was quantified on a fluorescence plate reader. […] Mice were sacrificed 24 hours post-injection and tissues were excised, rinsed with PBS, and imaged on the FMT 4000 (PerkinElmer, Waltham, MA), in epifluorescence mode. Epifluorescence levels were determined using TrueQuant™ FMT software and are represented as Mean Fluorescence to compensate for differences in tissue size. (TIF) Click here for additional data file.
Noninvasive fluorescence tomographic imaging datasets were used to quantify kinetic fluorescence changes in the tumors, heart, and liver. An optimal imaging time point of 24h was determined based on specificity of tumor signal and tumor’s signal-to-background ratio. (TIF) Click here for additional data file.
B: Quantification of tissue epifluorescence images, with data inset representing plasma pharmacokinetics assessed from serial bleeds of mice measured on a microplate fluorimeter. (TIF) Click here for additional data file.
Elevated TfV-750 signals in the liver and tumor indicate higher iron metabolism in these tissues. (TIF) Click here for additional data file.

[7] = Plasma pharmacokinetics of the probes, fluorescence microplate assay; type: in vivo; conditions: CD-1 mice; 2 nmoles IV; plasma fluorescence on a microplate reader
Experimental: as §3
Selectivity was assessed in vitro by flow cytometry and fluorescence microscopy using HT-29 human colorectal cells; fluorescence signal on TfV-750-labeled cells was ~15X greater than when 100 μM unlabeled recombinant transferrin was used to block labeling (S7 Fig). […] Animals were bled at indicated times, and plasma fluorescence was determined using a microplate assay. […]
Blood samples were obtained via terminal cardiac puncture and plasma fluorescence was quantified on a fluorescence plate reader. […] Epifluorescence levels were determined using TrueQuant™ FMT software and are represented as Mean Fluorescence to compensate for differences in tissue size. […]
B: Quantification of tissue epifluorescence images, with data inset representing plasma pharmacokinetics assessed from serial bleeds of mice measured on a microplate fluorimeter. […]

[8] = sorafenib 120 mg/kg daily for 8 days, imaged day 9, stated for both FLI probes
[9] = sorafenib 40 mg/kg, first 3 days of treatment
[10] = sorafenib 40 mg/kg, within 2 days of treatment, n = 5 per group
[11] = HT-29 tumor-bearing mice, 2 nmol/mouse IV
[12] = HT-29 tumor-bearing nu/nu mice, 2 nmol IV, tissues excised 24 h post-injection, epifluorescence

## CNC(=O)c1cc(Oc2ccc(NC(=O)Nc3ccc(Cl)c(C(F)(F)F)c3)cc2)ccn1 [sorafenib, Sorafenib]
HCT116-luc2 tumors [1]; sorafenib 40 mg/kg daily oral gavage, day 3, n = 5
  inhibition of TfV-750 tumor FLI signal: 65% and ~ 70%
HCT116-luc2 tumors [1]; [8]
  reduction in TfV-750 FLI signal as compared to controls: ≥ 40%
HCT116-luc2 tumors [2]; [9]
  reduction in BLI signal: no significant reduction
HCT116-luc2 tumors [2]; [10]
  reduction in viability (assessed by BLI): no significant reduction
HCT116-luc2 tumors [2]; sorafenib 80 mg/kg daily, days 0-4 and 7-11
  BLI and tumor volume results compared with the 120 mg/kg dose: Comparable results
HCT116-luc2 tumors [2]; sorafenib 120 mg/kg daily, days 0-4 and 7-11, by day 11, n = 5 per group
  suppression of tumor viability (BLI): ~ 90%
HCT116-luc2 tumors [2]; sorafenib 120 mg/kg, 2 days after the treatment began, n = 5 per group
  reduction in tumor BLI signals: ~ 40%
HCT116-luc2 tumors [3]
  tumor death in H&E stained tumor tissue sections: extensive tumor death
HCT116-luc2 tumors [4]; day 2, n = 10
  inhibition of BRS-680 tumor FLI signal: 40%
HCT116-luc2 tumors [4]; day 3, n = 5
  inhibition of BRS-680 tumor FLI signal: 79%
HCT116-luc2 tumors [4]; sorafenib 40 mg/kg, within the 2-3 day window, normalized to vehicle control
  inhibition of BRS-680 tumor signal: 40–80%
HCT116-luc2 tumors [4]; [8]
  reduction in BRS-680 FLI signal as compared to controls: ≥ 40%
[5]; sorafenib 40 mg/kg daily, by day 10, PET study cohort, n = 5 per group
  decrease of overt tumor size: ~ 50%
[5]; sorafenib 40 mg/kg, by day 10 or 11, over multiple studies
  growth inhibition in comparison with untreated control tumors: 50–90%
[5]; [9]
  reduction in tumor volume: no significant reduction
[5]; [10]
  reduction in size (tumor volume): no significant reduction
[5]; sorafenib 120 mg/kg oral gavage, days 0-4 and 7-9, n = 5 per group
  efficacy against tumor growth by tumor volume, versus vehicle: clearly demonstrated the drug’s efficacy
[5]; sorafenib 120 mg/kg, day 2, n = 5 per group
  change in tumor volume: no significant change
HCT116-luc2 tumors [6]
  inhibition of tumor uptake of 18F-FDG: 55–60% and 50–60%

## TfV-750: PEGylated recombinant transferrin with a NIR fluorescent reporter (ex/em 750/770 nm); transferrin receptor imaging probe
HT-29 tumors; [11]
  optimal time for in vivo tumor imaging post injection: 6 to 24 h
  time to (near) complete clearance from the system: about 4 days
HT-29 tumors; [12]
  biodistribution to tumors in collected tissues: good biodistribution to tumors
  route of clearance in collected tissues: efficient clearance via kidney excretion
[7]
  circulation half-life (plasma t1/2): ~ 9 h
